Laboratory results published in patent publication US12187720B2, “Compounds for treatment of cancer” (ONCTERNAL THERAPEUTICS, INC., priority 2010, dated 2025).
Read-outs that look alike come from different tables or passages of the source.

Columns and labels:
[1] = tested on: A375 human melanoma xenograft; experiment: In vivo efficacy, A375 human melanoma xenograft in mice
Procedure: DTIC at 60 mg/kg was used as a positive control again.
PC-3 and A375 tumor xenograft studies.
(§1) In vivo antitumor activity [tumor growth inhibition (% T/C), tumor growth delay (T-C value), and tumor cell kill (total log cell kill)].

[2] = Metabolic stability in dog liver microsomes; type: in vitro ADME; conditions: Table 20; for half-life at 0.5 μM: dog, dog liver microsomes, pH 7.4, read-out: Half life in Dog liver microsome
[3] = tested on: tubulin (colchicine, vinblastine and paclitaxel binding sites); experiment: Mass spectrometry competitive binding assay on tubulin
Excerpt: MS competition binding assay. […] Each reaction was run in triplicate.

[4] = in vivo; conditions: male, ICR, mouse, plasma, iv, 15 mg/kg
[5] = Metabolic stability in rat liver microsomes; type: in vitro ADME; conditions: Table 20; for half-life at 0.5 μM: rat, liver microsomes, pH 7.4, read-out: Half life in Rat liver microsome
[6] = Rotarod test (in vivo neurotoxicity) in ICR mice; design: species or system mouse; conditions: 1h 5 or 15 mg/kg, vinblastine 0.5 mg/kg, i.p. daily
Procedure: Rotarod test. […] The rotarod test was performed twice a week.

[7] = tested on: Bovine brain tubulin; experiment: In vitro tubulin polymerization assay (bovine brain tubulin); type: biochemical; conditions: 10 μM
[8] = Metabolic stability in mouse liver microsomes; type: in vitro ADME; conditions: for half-life at 0.5 μM: mouse, liver microsomes, pH 7.4, Table 20, read-out: Half life in Mouse liver microsome
[9] = Pharmacokinetic study in Sprague-Dawley rats
[10] = tested on: PC-3 xenografts; conditions: for mice that lost more than 15% body weight: mouse, in vivo
Excerpt: as §1

[11] = Metabolic stability in monkey liver microsomes; type: in vitro ADME; conditions: Table 20; for half-life at 0.5 μM: monkey, monkey liver microsomes, pH 7.4, read-out: Half life in Monkey liver microsome
[12] = in vivo; conditions: Sprague-Dawley, rat, plasma
[13] = tested on: PC-3 cells; experiment: Apoptosis detection by ELISA (cytoplasmic DNA-histone complexes), PC-3 cells; type: cell-based, human; conditions: PC-3 and A375 cells, 24 h
Excerpt: The levels of DNA-histone complexes were used to represent cell apoptosis.
Apoptosis detection by ELISA. Quantification of the enrichment of mono- and oligonucleosomes in the cytoplasm was used to determine the ability of the compounds to induce apoptosis (cell death detection ELISA PLUS, Roche, Germany) following the manufacturer's instructions.

[14] = Metabolic stability in human liver microsomes; conditions: for half-life at 0.5 μM: human, liver microsomes, pH 7.4
[15] = tested on: NCI/ADR-RES; experiment: SRB cytotoxicity assay, P-gp over-expressing NCI/ADR-RES cells; type: cell-based, human; conditions: NCI/ADR-RES versus OVCAR-8
[16] = tested on: MES-SA/DX5; experiment: SRB growth inhibition assay, P-gp over-expressing MES-SA/DX5 cells; type: cell-based; conditions: Table 6; read-out: IC50 ± SEM MES-SA/Dx5
[17] = Pharmacokinetic study in ICR mice
[18] = in vitro; conditions: human, microsomes, pH 7.4
[19] = tested on: A375 cells; experiment: Cell cycle analysis (flow cytometry) in A375 cells; type: cell-based, human; conditions: 24 h
[20] = tested on: WM-164 melanoma cells; experiment: Microtubule imaging (immunofluorescence) in WM-164 melanoma cells; type: cell-based, human; conditions: 18 h
Excerpt: Primary antibody for tubulin and fluorescence-labeled secondary antibody were subsequently added to the cells. Cell nuclei were stained by DAPI. Whole Cell Stain Green was also applied to all cells. All images were acquired with an Olympus IX71 inverted fluorescence microscope (Olympus Corp., Tokyo, Japan) with overlays from separate images of tubulin (red), nuclei (blue), and whole cells (green).

[21] = tested on: B16-F1 melanoma cells; experiment: B16-F1 melanoma colony formation assay in soft agar; type: cell-based, mouse; conditions: 14 days
Procedure: B16-F1 melanoma cells were plated at a colony-forming density (2000 cells per well on six-well plates) on top of 0.8% base agar. Cells were grown in 0.4% agar together with DMEM medium supplemented with fetal bovine serum and an antibiotic-antimycotic solution at 37° C. in an atmosphere of 95% air and 5% CO2. […] Compounds were added to the media from 1 mM DMSO stock solutions, and a corresponding dilution of DMSO was used as control. Cells were grown for 14 days. Plates were photographed, and the number of colonies was measured by Artek 880 Automated Colony Counter (Artek Systems Corporation, Farmingdale, NY).

[22] = tested on: T1, tubulin colchicine binding site; experiment: [3H]-colchicine competition-binding scintillation proximity assay
T1 construct: […]

[23] = tested on: B16-F1 melanoma tumors; experiment: In vivo efficacy, B16-F1 melanoma in C57/BL mice; design: species or system mouse; conditions: 13 days, C57BL/6 mice
[24] = Permeability (drug-like properties); conditions: mean from duplicate studies
[25] = tested on: PC-3; experiment: SRB cytotoxicity assay, PC-3 prostate cancer cells; type: cell-based, human; conditions: Homo sapiens, PC-3; Table 16B; read-out: IC50 in PC3
Excerpt: Cells were stained with SRB solution.

[26] = Pharmacokinetic study in beagle dogs; conditions: dog, in vivo
[27] = tested on: glioma cells; experiment: SRB cytotoxicity assay, glioma cells; conditions: read-out: potency in glioma cells
[28] = tested on: Porcine brain tubulin; experiment: In vitro microtubule polymerization assay (porcine brain tubulin); type: biochemical; conditions: 5 μM, at 15 min
[29] = tested on: PC-3/TxR tumors; conditions: PC-3/TxR xenograft, b.i.d × 5/w, end point day 26
[30] = tested on: HUVECs; experiment: Endothelial cell growth inhibition (SRB), HUVEC; type: cell-based, human
[31] = tested on: BCRP; experiment: in vitro; conditions: human

SMILES: COc1cc(C(=O)c2csc(-c3ccccc3)n2)cc(OC)c1OC [1h, (2-Phenyl-thiazol-4-yl)-(3,4,5-trimethoxy-phenyl)-methanone]
- T-C (tumor growth delay) ([1]; Melanoma (A375) xenograft, 20 mg/kg i.p.): 10 days
- Total log cell kill ([1]; ip, 20 mg/kg, 110.4 h): 0.7
- half-life at 0.5 μM [2]: 19 min
- competition for tubulin binding sites [3]: specifically competed with colchicine binding to tubulin
- AUC [4]: 1900 ng·h/mL
- half-life [4]: 140 min
- half-life at 0.5 μM [5]: 31 min
- time on the rotating rod versus vehicle group [6]: no significant difference
- inhibition of tubulin polymerization ([7]; 15 min): 90%
- inhibition of tubulin polymerization ([7]; 20 min incubation, versus vehicle): 47%
- half-life at 0.5 μM [8]: < 5 min
- Vss (volume of distribution following intravenous dosing) ([9]; IV, […] (1h, 2r), 5 mg/kg (5Ha, 5Hc)): 4.9 ± 1.9 L/kg
- RatPK_PO10mgk_AUC ([9]; rat, PO 10 mg/kg): 37 µg·min/mL
- F (percent oral bioavailability), rat ([9]; rats, PO versus IV): 3.3%
- % T/C ([10]; 5 mg/kg i.p.): 29%
- % T/C ([10]; 15 mg/kg i.p.): 4%
- % T/C ([10]; ip, 15 mg/kg, 504 h): 4%
- mice that lost more than 15% body weight [10]: 1 of 8
- half-life at 0.5 μM [11]: < 5 min
- Vd ([12]; iv, […]): 7.6 L/kg
- clearance ([12]; iv, […]): 6 mL/min/kg
- half-life ([12]; iv, […]): 1440 min
- clearance ([12]; female, iv): 7.7 ± 1 mL/min/kg
- concentration inducing apoptosis [13]: 50 nM
- dose that did not cause greater than 10% loss of body weight (ICR mice, 4 consecutive days of intraperitoneal dosing): up to 30 mg/kg

SMILES: COc1cc(C(=NC#N)c2csc(-c3ccccc3)n2)cc(OC)c1OC [2j, N-((2-phenylthiazol-4-yl)(3,4,5-trimethoxyphenyl)methylene)cyanamide]
- half-life at 0.5 μM [14]: < 5 min
- Resistance factor [15]: 0.4

SMILES: COc1cc(C(=O)c2csc(-c3ccc(F)cc3)n2)cc(OC)c1OC [2k]
- T-C (tumor growth delay) ([1]; Melanoma (A375) xenograft, 15 mg/kg i.p.): 11 days
- Total log cell kill ([1]; Melanoma (A375) xenograft, 15 mg/kg i.p., doubling time 4.6 d): 0.7
- IC50 [16]: 19 nM
- Half life in Dog liver microsome [2]: 16 min
- AUC ([17]; Mice, 15 mg/kg i.v.): 22000 ng·h/mL
- CL ([17]; Mice, 15 mg/kg i.v.): 112 mL/min/kg
- Vss ([17]; Mice, 15 mg/kg i.v.): 6.6 L/kg
- Half life in Rat liver microsome [5]: 32 min
- half life in human liver microsome ([14]; Table 20): 10 min
- Half life in Mouse liver microsome ([8]; Table 20): 9 min
- % T/C ([10]; 5 mg/kg i.p.): 21%
- % T/C ([10]; 15 mg/kg i.p.): 24%
- % T/C ([10]; Prostate (PC-3) xenograft, 5 mg/kg i.p., 21 days): 21%
- % T/C ([10]; Prostate (PC-3) xenograft, 15 mg/kg i.p., 21 days): 24%
- mice that lost more than 15% body weight [10]: 2 out of 7
- Half life in Monkey liver microsome [11]: <5 min
- concentration inducing apoptosis [13]: 50 nM
- dose that did not cause greater than 10% loss of body weight (mouse, in vivo, ip): ≤ 15 mg/kg

SMILES: COc1cc(C(=O)c2csc(-c3ccc(O)cc3)n2)cc(OC)c1OC [2l, (2-(4-Hydroxyphenyl)thiazol-4-yl)(3,4,5-trimethoxyphenyl)methanone]
- half-life at 0.5 μM [2]: 30 min
- half-life at 0.5 μM [5]: 49 min
- half-life at 0.5 μM [8]: 11 min
- half-life at 0.5 μM [18]: 20 min
- half-life at 0.5 μM [11]: 8 min

SMILES: COc1ccc(-c2nc(C(=O)c3ccc(F)cc3)c[nH]2)cc1 [12cb, (4-fluorophenyl)(2-(4-methoxyphenyl)-1H-imidazol-4-yl)methanone]
- concentration from which most cells are arrested in the G2/M phase [19]: 200 nM
- effect on microtubules [20]: microtubule fragmentation
- concentration with effective inhibition of colony formation [21]: 20 nM

SMILES: COc1cc(C(=O)c2c[nH]c(-c3ccc(C)cc3)n2)cc(OC)c1OC [12da, (2-(p-tolyl)-1H-imidazol-4-yl)(3,4,5-trimethoxyphenyl)methanone]
- half-life at 0.5 μM [2]: 17 min
- half-life at 0.5 μM [5]: 28 min
- half-life at 0.5 μM [14]: 23 min
- half-life at 0.5 μM [8]: 8 min
- effect on microtubules [20]: microtubule fragmentation
- colchicine site binding in words [22]: highest binding affinity

SMILES: COc1cc(C(=O)c2cn(C)c(-c3ccc(C)cc3)n2)cc(OC)c1OC [12dab, (1-methyl-2-(p-tolyl)-1H-imidazol-4-yl)(3,4,5-trimethoxyphenyl)methanone]
- half-life at 0.5 μM [2]: 46 min
- half-life at 0.5 μM [5]: 12 min
- half-life at 0.5 μM [8]: < 5 min
- half-life at 0.5 μM [18]: 21 min

SMILES: O=C(c1ccc(F)cc1)c1c[nH]c(-c2ccc(Cl)cc2)n1 [12fb, (2-(4-chlorophenyl)-1H-imidazol-4-yl)(4-fluorophenyl)methanone]
- tolerability ([1]; 25 mg/kg, SHO mice): well tolerated
- half-life at 0.5 μM [18]: 37 min
- tumor growth inhibition (TGI value) ([23]; 45 mg/kg): 82%

SMILES: CN(C)/N=N/c1[nH]cnc1C(N)=O [DTIC, reference compound]
- tumor growth inhibition (TGI value) ([1]; 60 mg/kg, 31 days, SHO mice): 52%
- tumor growth inhibition (TGI value) ([23]; 60 mg/kg): 51%

SMILES: CC(C)NCC(O)COc1cccc2ccccc12 (stereo not drawn) [Propranolol]
- Papp(A→B) in CaCO-2 assay [24]: (19) 10^−6 cm/s

SMILES: COc1cc(C(=O)c2csc(Nc3ccc4[nH]ccc4c3)n2)cc(OC)c1OC [compound 55, (2-(1H-INDOL-5-YLAMINO)THIAZOL-4-YL)(3,4,5-TRIMETHOXYPHENYL)METHANONE]
- Papp(A→B) in CaCO-2 assay [24]: 99 10^−6 cm/s
- competition for tubulin binding sites [3]: competed effectively with colchicine
- clearance in words, mice ([17]; mouse, in vivo): moderate clearance
- IC50 [25]: 28 nM
- clearance in words, dogs [26]: moderate clearance
- IC50 [27]: 22 nM
- inhibition of tubulin polymerization [28]: 40%
- clearance in words, rats ([9]; rat, in vivo): low clearance
- bioavailability ([12]; ICR, beagle, po): 24 to 36%
- Tumor size End ([29]; PO 10 mpk): 1152 ± 433 mm^3
- Tumor size End ([29]; PO 30 mpk): 101 ± 19 mm^3

SMILES: COc1cccc2c1C(=O)c1c(O)c3c(c(O)c1C2=O)C[C@@](O)(C(=O)CO)C[C@@H]3O[C@H]1C[C@H](N)[C@H](O)[C@H](C)O1 [doxorubicin]
- times more active against endothelial cells than against cancer cells [30]: not specific to endothelial cells
- IC50 ([30]; N = 3): 274 nM

SMILES: CC[C@]1(O)C[C@@H]2CN(CCc3c([nH]c4ccccc34)[C@@](C(=O)OC)(c3cc4c(cc3OC)N(C)[C@H]3[C@@](O)(C(=O)OC)[C@H](OC(C)=O)[C@]5(CC)C=CCN6CC[C@]43[C@@H]65)C2)C1 [vinblastine, reference compound]
- IC50 [31]: 25 ± 1 nM
- competition for tubulin binding sites [3]: did not inhibit the colchicine-tubulin binding
- time on the rotating rod versus vehicle group [6]: gradually reduced the time
- % T/C ([10]; 0.5 mg/kg q2d, day 22): 29%
- % T/C ([10]; Prostate (PC-3) xenograft, 0.5 mg/kg, q2d): 29%
